# Key:
# Assay type in all cases: cell-based
# [1] = target: P2Y1 (Homo sapiens, UniProt P47900); experiment: inhibition of […] ADP-induced cytosolic Ca2+ increase in human platelets
# [2] = target: T1, P2X1 (Homo sapiens, UniProt P51575); experiment: FLUO-4 flow cytometry of extracellular Ca2+ entry in human platelets; conditions: read-out: Ap4A Agonist Activity
# T1 sequence (P51575 1-399): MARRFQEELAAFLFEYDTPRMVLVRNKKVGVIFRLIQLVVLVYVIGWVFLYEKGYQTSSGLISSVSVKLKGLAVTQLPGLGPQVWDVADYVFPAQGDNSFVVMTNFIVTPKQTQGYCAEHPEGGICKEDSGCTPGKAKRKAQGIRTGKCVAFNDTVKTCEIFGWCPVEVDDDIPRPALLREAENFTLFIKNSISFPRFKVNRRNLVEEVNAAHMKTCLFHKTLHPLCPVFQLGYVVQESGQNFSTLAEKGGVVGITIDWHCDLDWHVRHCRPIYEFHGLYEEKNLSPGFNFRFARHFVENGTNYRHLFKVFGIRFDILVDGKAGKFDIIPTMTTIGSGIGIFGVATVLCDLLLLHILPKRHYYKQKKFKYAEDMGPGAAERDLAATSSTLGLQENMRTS
# [3] = target: P2Y12 (Homo sapiens, UniProt Q9H244); experiment: VASP phosphorylation flow cytometry in human whole blood platelets
# Chain of P2Y12 (Q9H244 whole entry): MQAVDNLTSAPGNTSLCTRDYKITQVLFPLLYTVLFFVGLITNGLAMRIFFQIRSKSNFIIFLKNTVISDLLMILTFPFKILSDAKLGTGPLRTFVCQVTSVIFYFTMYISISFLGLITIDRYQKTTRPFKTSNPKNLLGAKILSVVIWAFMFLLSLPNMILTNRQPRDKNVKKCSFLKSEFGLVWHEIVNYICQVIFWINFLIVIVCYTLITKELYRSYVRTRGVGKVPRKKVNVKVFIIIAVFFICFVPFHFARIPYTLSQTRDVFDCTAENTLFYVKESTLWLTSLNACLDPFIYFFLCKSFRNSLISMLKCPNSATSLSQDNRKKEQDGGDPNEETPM
# Chain of P2Y1 (P47900 whole entry): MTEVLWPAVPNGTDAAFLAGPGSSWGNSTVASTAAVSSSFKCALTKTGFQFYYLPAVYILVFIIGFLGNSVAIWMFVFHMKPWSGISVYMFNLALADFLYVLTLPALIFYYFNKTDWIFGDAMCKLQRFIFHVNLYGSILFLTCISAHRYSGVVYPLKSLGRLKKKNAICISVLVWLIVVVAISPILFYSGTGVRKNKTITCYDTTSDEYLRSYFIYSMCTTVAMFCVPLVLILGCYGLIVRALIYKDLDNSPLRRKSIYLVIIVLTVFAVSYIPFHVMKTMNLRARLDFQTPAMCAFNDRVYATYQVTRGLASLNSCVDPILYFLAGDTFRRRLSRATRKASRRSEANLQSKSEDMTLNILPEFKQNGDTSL
smiles,measurement,setting,value
"Nc1ncnc2c1ncn2[C@@H]1O[C@H](COP(=O)(O)OP(=O)(O)OP(=O)(O)OP(=O)(O)OC[C@H]2O[C@@H](n3cnc4c(N)ncnc43)[C@H](O)[C@@H]2O)[C@@H](O)[C@H]1O [Ap4A, Diadenosine 5',5""'-P^1,P^4-tetraphosphate]",IC50,[1],40.8 ± 12.3 µM
same,EC50,[2],~0.3 µM
same,IC50,[3],> 250 µM

# Source: paper PMC2826549 (Thrombosis research, 2009)
